Reference: ChEMBL document CHEMBL4616686, “PROTAC Compounds Targeting α-Synuclein Protein for Treating Neurogenerative Disorders: Alzheimer's and Parkinson's Diseases” (ACS Med Chem Lett, 2020)

Organism: Homo sapiens
Assay: Protac activity at E3 ubiquitin ligase/alpha-syn expressed in human HEK293/TREx A53T cells assessed as alpha-synuclein degradation measured as amount of protein remaining at 1 uM by ELISA relative to control
Format: cell-based

Row | Structure (SMILES) | Activity [%]
1 | CNc1ccc(-c2nc3ccc(OCCOCCOCCOCCOCCOCC(=O)N[C@H](C(=O)N4C[C@H](O)C[C@H]4C(=O)N[C@@H](C)c4ccc(-c5scnc5C)cc4)C(C)(C)C)cc3s2)cc1 | < 35
2 | O=C1CCC(N2C(=O)c3ccc(N4CCN(CCCO[C@H]5C[C@H](Oc6ccc7c(c6)Sc6cc([N+](=O)[O-])ccc6N7)C5)CC4)cc3C2=O)C(=O)N1 (stereo partly specified) | 35 to 70
3 | Cc1ncsc1-c1ccc([C@H](C)NC(=O)[C@@H]2C[C@@H](O)CN2C(=O)[C@@H](NC(=O)CN2CCN(CCN3CCC(O[C@H]4C[C@H](Oc5ccc6c(c5)Sc5cc([N+](=O)[O-])ccc5N6)C4)CC3)CC2)C(C)(C)C)cc1 | < 35
4 | Cc1ncsc1-c1ccc([C@H](C)NC(=O)[C@@H]2C[C@@H](O)CN2C(=O)[C@@H](NC(=O)COCCOCCOc2ccc(CN3C(=O)/C(=C/C=C/c4ccc([N+](=O)[O-])cc4)c4ccccc43)cc2)C(C)(C)C)cc1 | 35 to 70
5 | CNc1ccc(-c2nc3ccc(OCCOCCOCCOCCOCCOCCOCC(=O)N[C@H](C(=O)N4C[C@H](O)C[C@H]4C(=O)N[C@@H](C)c4ccc(-c5scnc5C)cc4)C(C)(C)C)cc3s2)cc1 | < 35
6 | CNc1ccc(-c2nc3ccc(OCCOCCOCC(=O)N[C@H](C(=O)N4C[C@H](O)C[C@H]4C(=O)N[C@@H](C)c4ccc(-c5scnc5C)cc4)C(C)(C)C)cc3s2)cc1 | < 35
